Reference: ChEMBL document CHEMBL2010731, “Discovery of P2X3 selective antagonists for the treatment of chronic pain” (Bioorg Med Chem Lett, 2012)
Blank lines part the entries; values can stand above or below the compound they belong to.

Experiments:
[1] = Intrinsic clearance in human liver microsomes at 1 uM; assay type: ADME, Microsome; settings: read-out: CLH
[2] = Apparent permeability from apical to basal side of human Caco2 cells at 10 uM; assay type: ADME, cell-based; settings: Caco-2
[3] = Drug excretion in rat faces at high dose, iv; assay type: ADME, Feces; settings: faeces, read-out: Drug excretion
[4] = Clearance in dog hepatocytes assessed per 10^6 cells; assay type: ADME, cell-based, Canis lupus familiaris, Hepatocyte; settings: read-out: CLH
[5] = Drug excretion in iv dosed rat faces; assay type: ADME, organism-based, Feces; settings: faeces, read-out: Drug excretion
[6] = Clearance in rat at 11 umol/kg, iv; assay type: ADME, organism-based; settings: in vivo
[7] = Clearance in dog at […], iv; assay type: ADME, organism-based, Canis lupus familiaris; settings: in vivo
[8] = AUC in dog at […], iv; assay type: ADME, organism-based, Canis lupus familiaris; settings: plasma
[9] = AUC in rat at 12 umol/kg, po; assay type: ADME, organism-based; settings: plasma
[10] = AUC in rat at 11 umol/kg, iv; assay type: ADME, organism-based; settings: plasma
[11] = Half life in dog at […], iv; assay type: ADME, organism-based, Canis lupus familiaris; settings: in vivo
[12] = Cmax in rat at 12 umol/kg, po; assay type: ADME, organism-based; design: dose 12 umol/kg, route oral; settings: in vivo
[13] = Half life in rat at 11 umol/kg, iv; assay type: ADME, organism-based; settings: in vivo
[14] = Half life in rat at […], iv; assay type: ADME, organism-based; settings: in vivo
[15] = AUC in rat at […], iv; assay type: ADME, organism-based; settings: plasma
[16] = Cmax in rat at 58 umol/kg, po; assay type: ADME, organism-based; design: dose 58 umol/kg, route oral; settings: in vivo
[17] = Clearance in rat at […], iv; assay type: ADME, organism-based; settings: in vivo
[18] = Oral bioavailability in rat at 58 umol/kg; assay type: ADME, organism-based; settings: in vivo
[19] = Oral bioavailability in rat at 12 umol/kg; assay type: ADME, organism-based; settings: in vivo
[20] = AUC in rat at 58 umol/kg, po; assay type: ADME, organism-based; settings: plasma
[21] = Intrinsic clearance in rat liver microsomes; assay type: ADME, Microsome; settings: read-out: CLH
[22] = Lipophilicity, log D of the compound at pH 7.4; assay type: physicochemical; settings: buffer
[23] = Ratio of drug level in brain to plasma in Sprague-Dawley rat; assay type: ADME; settings: read-out: BPR
[24] = AUC in rat at […], sc; assay type: ADME, organism-based; settings: plasma
[25] = Cmax in rat at […], sc; assay type: ADME, organism-based; design: dose 5.9 umol/kg, route subcutaneous; settings: in vivo

- microsomal CLint at 1 µM [1]: 4 µL/min/mg
Structure (SMILES): COc1ccc([C@@H](C)Nc2nc(N3CCN(C(C)=O)CC3)nc3c2CN(C(C)C)C3=O)cc1

- dose excreted [3]: < 3%
- hepatocyte CLint [4]: 2.5 µL/min/1e6 cells
- dose excreted [5]: > 15%
- microsomal CLint at 1 µM [1]: 10 µL/min/mg
- clearance [6]: 22 mL/min/kg
- clearance [7]: 8 mL/min/kg
- AUC [8]: 4.8 µM·h
- AUC [9]: 0.4 µM·h
- Papp A→B at 10 µM [2]: 2.4 ×10⁻⁶ cm/s
- AUC [10]: 8.05 µM·h
- half-life [11]: 14.5 h
- Cmax [12]: 100 nM
- half-life [13]: 2 h
- half-life [14]: 0.5 h
- AUC [15]: 0.4 µM·h
- Cmax [16]: 6900 nM
- clearance [17]: 88 mL/min/kg
- bioavailability [18]: 62%
- bioavailability [19]: 16%
- AUC [20]: 1.8 µM·h
- microsomal CLint [21]: 17 µL/min/mg
- logD [22]: 3
Structure (SMILES): CCOc1ccc([C@@H](C)Nc2nc(N3CCN(C(C)=O)CC3)nc3c2CN(C(C)C)C3=O)cc1

- microsomal CLint at 1 µM [1]: 10 µL/min/mg
- microsomal CLint [21]: 58 µL/min/mg
Structure (SMILES): CCOc1ccc([C@@H](CC)Nc2nc(N3CCN(C(C)=O)CC3)nc3c2CN(C(C)C)C3=O)cc1

- microsomal CLint at 1 µM [1]: 16 µL/min/mg
- Papp A→B at 10 µM [2]: 0.6 ×10⁻⁶ cm/s
Structure (SMILES): CC(=O)N1CCN(c2nc(NCc3cc4ccccc4cn3)c3c(n2)C(=O)N(C(C)C)C3)CC1

- microsomal CLint at 1 µM [1]: 11 µL/min/mg
- Papp A→B at 10 µM [2]: 0.1 ×10⁻⁶ cm/s
Structure (SMILES): CC(=O)N1CCN(c2nc(NCc3cnc4ccccc4c3)c3c(n2)C(=O)N(C(C)C)C3)CC1

- logD [22]: 4.3
Structure (SMILES): CC(C)N1Cc2c(NC(c3ccccc3)c3ccccc3)nc(N3CCOCC3)nc2C1=O

Second part, the compound before the results:

Structure (SMILES): CC(=O)N1CCN(c2nc(NCc3ccc(Cl)cc3)c3c(n2)C(=O)N(C(C)C)C3)CC1
- microsomal CLint at 1 µM [1]: 6 µL/min/mg

Structure (SMILES): CC(=O)N1CCN(c2nc(N[C@H](C)c3ccc(OC(F)(F)F)cc3)c3c(n2)C(=O)N(C(C)C)C3)CC1
- microsomal CLint at 1 µM [1]: 22 µL/min/mg
- Papp A→B at 10 µM [2]: 4.5 ×10⁻⁶ cm/s

Structure (SMILES): CC(=O)N1CCN(c2nc(NCc3ccc(OC(F)(F)F)cc3)c3c(n2)C(=O)N(C(C)C)C3)CC1
- microsomal CLint at 1 µM [1]: 4 µL/min/mg
- Papp A→B at 10 µM [2]: 2.9 ×10⁻⁶ cm/s

Structure (SMILES): CCOc1ccc([C@H](Nc2nc(N3CCN(C(C)=O)CC3)nc3c2CN(C(C)C)C3=O)C(F)(F)F)cc1
- microsomal CLint at 1 µM [1]: 5 µL/min/mg
- Papp A→B at 10 µM [2]: 2 ×10⁻⁶ cm/s

Structure (SMILES): CC(=O)N1CCN(c2nc(NCc3ccc(C(F)(F)F)cc3)c3c(n2)C(=O)N(C(C)C)C3)CC1
- microsomal CLint at 1 µM [1]: 31 µL/min/mg

Structure (SMILES): CCOc1ccc([C@@H](C)Nc2nc(N3CCN(C(C)=O)CC3)nc3c2CN(C(C)C)C3=O)cc1F
- microsomal CLint at 1 µM [1]: 17 µL/min/mg
- Papp A→B at 10 µM [2]: 0.8 ×10⁻⁶ cm/s

Structure (SMILES): CCOc1ncc([C@@H](C)Nc2nc(N3CCN(C(C)=O)CC3)nc3c2CN(C(C)C)C3=O)cc1F
- microsomal CLint at 1 µM [1]: 7 µL/min/mg

Structure (SMILES): COc1cc(OC(F)(F)F)ccc1CNc1nc(N2CCN(C(C)=O)CC2)nc2c1CN(C(C)C)C2=O
- microsomal CLint at 1 µM [1]: 31 µL/min/mg

Structure (SMILES): CC(=O)N1CCN(c2nc3c(c(N(C)Cc4cc5ccccc5cn4)n2)CN(C(C)C)C3=O)CC1
- microsomal CLint at 1 µM [1]: 19 µL/min/mg
- Papp A→B at 10 µM [2]: 2.9 ×10⁻⁶ cm/s

Structure (SMILES): CC(=O)N1CCN(c2nc(NC(C)(C)Cc3ccc(Cl)cc3)c3c(n2)C(=O)N(C(C)C)C3)CC1
- Kp [23]: 0.02
- AUC [24]: 2.8 µM·h
- half-life [14]: 0.9 h
- AUC [15]: 0.7 µM·h
- clearance [17]: 54 mL/min/kg
- Cmax [25]: 1000 nM
- microsomal CLint [21]: 83 µL/min/mg
